Assays:
T cells = assay: Blocking of T cell function; format: cell-based; conditions: in vitro experiments
Brown Norway rats = assay: Brown Norway rat OVA model of asthma: BAL leukocytes, eosinophil peroxidase and myeloperoxidase; format: in vivo; conditions: administration prior to challenge with allergen
Description: The Brown Norway rat model was also employed to test the effects of TCR mimic peptides on reducing the symptoms of asthma. Similarly to the murine model described above, this model also involves immunisation with OVA. The model is described in Elwood, 1991. The model is illustrated in FIG. 5. In this model 10 rats were used per treatment group.
Rats were immunized against OVA by s.c. injection on Day 1, 14 and 21, and on Day 28 an inhalation challenge dose of OVA protein was administered. One day later (Day 29) the degree of airway inflammation was assessed by bronchoalveolar lavage (BAL), followed by counting of the infiltrating leukocytes and measurement of the activity of eosinophil peroxidase and myeloperoxidase.
Male Brown Norway rats (approximately 8 wks of age) were injected s.c. with 10 μg of OVA in 1 ml of alum adjuvant on day 1, 14 and 21. Concurrently, the animals received an i.p. injection of 0.25 ml Bordetella pertussis vaccine (Trivax-Evans Medical). Seven days. after the final sensitizing dose, the animals were restrained and exposed, nose only, to an aerosol of 10 mg/ml OVA for 1 h using a Wright nebuliser.
In these experiments the peptide was administered either intra-tracheally (i.t) (3 mg/ml, 50 μl in 0.9% saline per rat, 24 hours before OVA challenge), intra-nasally (i.n.) (50 mg/ml, 100 μl in 0.9% saline per rat, 24 hours before OVA challenge) or by inhalation (0.1 mg/ml in 0.9% saline, 50 ml delivered by aerosol at a flow rate of 1 ml/min, for a total of 50 minutes, using a Wright nebuliser to ten (10) rats, 24 h and 4 h prior to OVA challenge). […]
Twenty-four hours after the challenge with OVA, the rats from the different groups were anaesthetized by an i.p injection of sodium pentobarbital (100 mg/kg). […] The BAL fluid was centrifuged and the collected cells resuspended in 2 ml of PBS and the total number of leukocytes recovered were counted. The activity of eosinophil peroxidase and myeloperoxidase in the supernatant, following centrifugation (i.e., the cell-free BAL fluid) was determined by the method described in Schneider et al. 1997.

[1] = tested on: human patients with psoriasis, atopic eczema, lichen planus, or contact dermatitis; conditions: cited from earlier work
BALB/c mice [2] = assay: Whole body plethysmography of airway obstruction in the murine OVA model; format: in vivo, mouse; conditions: preliminary experiment, peptide before allergen challenge, days 0-6
Description: Mice were immunized against OVA by i.p. injection and fourteen days later an intra-nasal (i.n.) challenge dose of OVA protein was administered. Three days later the degree of airway inflammation was assessed by bronchoalveolar lavage (BAL,) followed by counting the infiltrating leukocytes. In addition, the lungs were sectioned and stained with haematoxylin and eosin for histological analysis. In a preliminary experiment, live mice were monitored after treatment using whole body plethysmography to assess the degree of airway obstruction. The effects of antigen challenge on airway hyperreactivity of mice in the experimental model described above can be measured by whole body plethysmography. This can be used to make an accurate comparison with the airway hyperreactivity observed in human asthmatics. The mice are anesthetized with pentobarbitol (70-90 mg/kg body weight, i.p.), and the jugular vein is cannulated with PE 10 silastic tubing. The tracheae are then intubated with a specially-angled 18 gauge needle, the chest opened, and the tubing connected to a Harvard ventilator (tidal volume=0.2 ml, frequency 120 breaths/min, positive end-expiratory pressure 2.5-3.0 cm H2 O) and placed in a whole body plethysmograph. This ventilation maintains normal arterial blood gases in the subject mouse. The dead space volume is 0.025 ml. […]

sensitised animals = conditions: applied topically following application of a contact allergen; cited from earlier work
BALB/c mice [3] = assay: Murine OVA model of asthma: BAL cell counts and lung histology; format: in vivo, mouse; conditions: for eosinophilia on lung histology / eosinophil infiltration into lung tissue: peptide i.n. 24 h before i.n. OVA challenge
Description: A murine model in which immunization with ovalbumin (OVA) is used to induce asthma-like symptoms in normal Balb/c mice was employed. This model is described in Archer et al. 2004.
Mice were immunized against OVA by i.p. injection and fourteen days later an intra-nasal (i.n.) challenge dose of OVA protein was administered. Three days later the degree of airway inflammation was assessed by bronchoalveolar lavage (BAL,) followed by counting the infiltrating leukocytes. In addition, the lungs were sectioned and stained with haematoxylin and eosin for histological analysis. In a preliminary experiment, live mice were monitored after treatment using whole body plethysmography to assess the degree of airway obstruction.
Female BALB/c mice (6-8 wk of age) were injected i.p. with 10 μg of OVA (Sigma-Aldrich, St. Louis, Mo.) in 200 μl of alum adjuvant (Serva, Heidelberg, Germany) on day 1. Fourteen days after the i.p. immunization, mice were anaesthetized by an i.p. injection of a mixture of ketamine and xylazine (Sigma-Aldrich), and treated i.n. with 50 μl of PBS containing 100 μg of OVA.
In preliminary experiments the peptide or “mock” peptide was given at either of two different time points (24 h prior to i.p. OVA sensitization or 24 h prior to i.n. OVA challenge) at a final concentration of either 1 mM (solution) or 50 mM (suspension) in phosphate-buffered saline (PBS; 0.02 M sodium phosphate buffer with 0.15 M sodium chloride, pH adjusted to 7.4.). The 50 mM concentration of the TCR peptide was chosen because 500 μM was the optimal blocking concentration for T cells in in vitro experiments. However, experiments using titration of the peptide will be used to determine the optimal dose. A 100 μl volume of formulated peptide was administered to the mice intranasally. […]
Three days after the i.n. challenge with OVA, the mice from the different groups were sacrificed, the tracheas were cannulated, and a BAL was performed by flushing lung and airways five times with 1 ml of PBS. BAL cells were counted and spun on to glass slides using a cytospin (Shandon Southern Products, Asmoor, U.K.), and then stained with Diff-Quik (Roche Diagnostics, Mannheim, Germany) according to the manufacturer's instructions. […]
Percentages of macrophages, lymphocytes, neutrophils, and eosinophils were determined microscopically using standard histological criteria.
On days 1-6 after the last intranasal challenge with either OVA or saline, the lungs were analyzed by histology. […] The number of eosinophils in the lungs was quantified microscopically using a calibrated stage. […]

NH2-Gly-Leu-Arg-Ile-Leu-Leu-Leu-Lys-Val-OH (H-GLRILLLKV-OH) [peptide, 9 amino acids, murine TCR-α transmembrane chain]
optimal blocking concentration for T cells (T cells): 500 µM
eosinophil peroxidase activity in bronchoalveolar lavage fluid (Brown Norway rats): reduction
leukocyte infiltration into lung tissue (Brown Norway rats): marked reduction
myeloperoxidase activity in bronchoalveolar lavage fluid (Brown Norway rats): reduction
therapeutic activity in human patients [1]: showed therapeutic activity
airway obstruction measured by whole body plethysmography (BALB/c mice [2]): significant effects
airway obstruction measured by whole body plethysmography (BALB/c mice [2]; listed as TCR mimic peptide): significant reduction
development of contact sensitivity (sensitised animals): inhibited development of contact sensitivity
asthma symptoms (BALB/c mice [3]; asthmatic mice, non-transgenic system): reduces asthma symptoms
eosinophilia in BAL (BALB/c mice [3]; group C: peptide i.n. 24 h before i.n. OVA challenge, two independent experiments, pooled data): significant decrease
eosinophilia on lung histology / eosinophil infiltration into lung tissue (BALB/c mice [3]; two independent experiments, pooled data): significant decrease
eosinophilia on lung histology / eosinophil infiltration into lung tissue (BALB/c mice [3]; two independent experiments, pooled data, listed as TCR mimic peptide): marked reduction

From patent publication US7795223B2, “Treatment of inflammatory airway disease” (Novozymes Biopharma Au Ltd., priority 2004, dated 2010)
